These results are taken from patent publication US11814393B2, “Substituted guanidine compounds” (UBE CORPORATION, priority 2016, dated 2023).

Molecules are shown by their SMILES.

Data set [1] deals with T1, rat plasma VAP-1 (Rattus norvegicus, UniProt O08590).
T1 construct: The blood was centrifuged at 14000 rpm for 10 minutes to get plasma; from tissue; host or cells: plasma of SD male rats (ex vivo, after oral dosing)
T1 sequence (O08590 28-763 limits assumed): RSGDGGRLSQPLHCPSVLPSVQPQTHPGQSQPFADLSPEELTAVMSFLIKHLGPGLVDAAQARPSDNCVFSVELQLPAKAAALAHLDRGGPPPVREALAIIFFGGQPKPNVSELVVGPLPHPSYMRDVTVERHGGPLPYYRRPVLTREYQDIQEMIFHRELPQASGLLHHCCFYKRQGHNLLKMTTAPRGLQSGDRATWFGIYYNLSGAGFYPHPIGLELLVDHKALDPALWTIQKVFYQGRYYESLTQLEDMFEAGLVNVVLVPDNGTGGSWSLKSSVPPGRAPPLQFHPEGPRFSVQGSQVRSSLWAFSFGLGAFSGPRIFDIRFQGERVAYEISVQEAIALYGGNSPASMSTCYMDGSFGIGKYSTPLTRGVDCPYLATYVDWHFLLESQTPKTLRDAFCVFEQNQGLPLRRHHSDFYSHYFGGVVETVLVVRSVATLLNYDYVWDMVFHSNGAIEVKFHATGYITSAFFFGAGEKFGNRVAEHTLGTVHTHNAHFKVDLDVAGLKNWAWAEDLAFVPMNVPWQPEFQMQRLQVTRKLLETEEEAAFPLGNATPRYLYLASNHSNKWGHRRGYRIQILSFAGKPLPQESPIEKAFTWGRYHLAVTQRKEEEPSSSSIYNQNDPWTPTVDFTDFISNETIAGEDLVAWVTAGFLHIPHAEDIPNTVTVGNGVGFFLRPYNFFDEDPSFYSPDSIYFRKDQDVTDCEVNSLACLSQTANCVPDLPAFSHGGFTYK
Kind of data set: (Ex vivo) rat plasma VAP-1 inhibition test after oral administration of the compound. To be noted: 3 hours after oral administration, SD male rats, non-fasting, read-out: inhibition ratio (plasma VAP-1 activity). It counts as in vivo. As for the experimental part: (Ex Vivo) Rat Plasma VAP-1 Inhibition Test after Oral Administration of the Compound
The compound was orally administered (0.3-10 mg/kg) to 7-12 week old SD male rats in the non-fasting state. Under anesthesia, the blood was collected in heparin tubes from the jugular vein before the administration and 3, 8 and 24 hours after the administration. The blood was centrifuged at 14000 rpm for 10 minutes to get plasma. The VAP-1 enzyme activity in the plasma was measured by radiochemical enzyme assay.
The radiochemical enzyme assay was conducted by modifying the method of P. H. Yu et al. (Diabetologia 40 1243 (1997)). ^14C-benzylamine (2.5 μM) was added to the obtained plasma, and was incubated at 37° C. for 3 hours. The reaction was terminated by the addition of 100 μL of 2 M citric acid solution to the reaction solution. The oxidative product was extracted using a toluene/ethyl acetate mixture and the radioactivity was measured with a liquid scintillation counter. The inhibition ratio of the compound was calculated using the following equation. Inhibition ratio={1−[Plasma VAP-1 activity after administration of the compound]/[Plasma VAP-1 activity before administration]}×100 [Math. 4]

Data set [2] has as its target T2, Human VAP-1 enzyme (Homo sapiens, UniProt Q16853).
T2 construct: purchased R&D Systems, Inc
T2 sequence (Q16853 27-763 limits assumed): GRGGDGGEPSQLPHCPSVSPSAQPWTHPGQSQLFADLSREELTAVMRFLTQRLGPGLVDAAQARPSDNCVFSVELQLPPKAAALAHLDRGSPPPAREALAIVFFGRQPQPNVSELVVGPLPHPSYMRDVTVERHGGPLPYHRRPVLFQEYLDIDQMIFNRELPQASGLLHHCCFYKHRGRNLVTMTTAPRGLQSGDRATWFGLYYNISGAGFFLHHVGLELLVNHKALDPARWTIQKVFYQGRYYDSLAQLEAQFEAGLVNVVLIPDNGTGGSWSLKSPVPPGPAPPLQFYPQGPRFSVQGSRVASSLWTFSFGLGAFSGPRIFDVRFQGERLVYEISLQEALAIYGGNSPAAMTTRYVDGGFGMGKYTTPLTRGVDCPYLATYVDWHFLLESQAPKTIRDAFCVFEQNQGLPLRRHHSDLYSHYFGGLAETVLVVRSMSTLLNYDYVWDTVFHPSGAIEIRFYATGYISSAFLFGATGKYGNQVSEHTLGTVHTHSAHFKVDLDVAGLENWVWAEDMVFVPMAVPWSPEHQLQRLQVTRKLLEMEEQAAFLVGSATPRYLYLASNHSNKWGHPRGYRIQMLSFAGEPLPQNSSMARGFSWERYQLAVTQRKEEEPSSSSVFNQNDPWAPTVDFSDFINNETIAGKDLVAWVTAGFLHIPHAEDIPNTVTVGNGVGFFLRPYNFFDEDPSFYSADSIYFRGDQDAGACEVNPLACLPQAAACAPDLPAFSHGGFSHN
Kind of data set: Human VAP-1 enzyme inhibition test. Type of data set: biochemical. To be noted: compound 30 nM; 14C-benzylamine 100 μM, 37° C., 1 hour; read-out: inhibition ratio. As for the experimental part: Human VAP-1 Enzyme Inhibition Test
This test was conducted by modifying the method of P. H. Yu et al. (Diabetologia 40 1243 (1997)). Human VAP-1 enzyme (R&D Systems, Inc.) was pre-incubated in a 96-well plate with the compound dissolved in dimethylsulfoxide at room temperature for 20 minutes. Next, in a solution to the final volume of 200 μL, the enzyme reaction solution was incubated with ^14C-benzylamine (final concentration 100 μM) at 37° C. for 1 hour. The reaction was terminated by the addition of 100 μL of 2 M citric acid solution to the reaction solution. The oxidative product was extracted using a toluene/ethyl acetate mixture and the radioactivity was measured with a liquid scintillation counter. The inhibition ratio of the compound was calculated using the following equation. Inhibition ratio={1−[VAP-1 enzyme activity after treatment with the compound]/[VAP-1 enzyme activity in the presence of dimethylsulfoxide alone without the compound]}×100 [Math. 1]

Data set [3] can be described thus: Rat pharmacokinetic (PK) study (concentration of compound in plasma after oral administration). Type of data set: in vivo, SD rats. To be noted: dose 3 mg/kg. How it is done: Rat Pharmacokinetic (PK) Study (Concentration of Compound in Plasma after Oral Administration)
Seven to eight week old SD rats (weighing 180 to 250 g) were orally administered with a suspension of the compound in 0.5 W/V % methylcellulose 400 solution. Under anesthesia, the blood was collected from the jugular vein in EDTA tubes at 0.25, 0.5, 1, 2, 4, 6, 8 and 24 hours after the administration of the compound. The blood was centrifuged at 4° C. and 6000 g for 3 minutes to give plasma. Acetonitrile was added to the plasma, and the mixture was stirred with a shaker at 750 rpm for 3 minutes and was deproteinized by centrifugation at 3700 rpm for 2 minutes. The obtained sample was analyzed by LC/MS under the following conditions.
The concentration of the compound in the plasma at each blood sampling time was determined by an internal standard method, and AUC all (Area Under Curve) was calculated by a trapezoidal method.
The following LC and MS systems were used for measurement.
LC: CBM 30 series manufactured by Shimadzu Corporation
Column: Phenomenex Kinetex C18 (50×2.1 mm, 2.6 μm)
Column temperature: 40° C.
Mobile phase A: 0.1% aqueous formic acid solution, mobile phase B: 0.1% formic acid, 50% acetonitrile/methanol mixture
MS: 3200 manufactured by SCIEX

Take `CC1(C)CN(c2ncc(-c3cccc(COC(=O)NC(=N)N)c3F)cc2F)C1` [Example 13, 3-[6-(3,3-Dimethylazetidin-1-yl)-5-fluoropyridin-3-yl]-2-fluorobenzyl carbamimidoylcarbamate]: in data set [1], the inhibition in vivo at 0.3 mg/kg is not below 50%. In data set [2], the inhibition at 0.03 µM was not below 50%.

Turning to `CC1(O)CN(c2ncc(-c3cccc(COC(=O)NC(=N)N)c3F)cc2F)C1` [Example 15, 2-Fluoro-3-[5-fluoro-6-(3-hydroxy-3-methylazetidin-1-yl)pyridin-3-yl]benzyl carbamimidoylcarbamate], in data set [1], the inhibition in vivo at 0.3 mg/kg was not below 50%. The “amount of metabolites found in the blood” value in data set [3] is given as “small”. Besides, the inhibition at 0.03 µM in data set [2] is not below 50%.

Turning to `[2H]C([2H])([2H])OC1CN(c2ncc(-c3cccc(COC(=O)NC(=N)N)c3F)cc2F)C1` [Example 2, 2-Fluoro-3-{5-fluoro-6-[3-(methoxy-d3)azetidin-1-yl]pyridin-3-yl}benzyl carbamimidoylcarbamate], in data set [1], the inhibition in vivo at 0.3 mg/kg is not below 50%. Further, the inhibition at 0.03 µM in data set [2] was not below 50%.

With `CCOC1CN(c2ncc(-c3cccc(COC(=O)NC(=N)N)c3F)cc2F)C1` [Example 3, 3-[6-(3-Ethoxyazetidin-1-yl)-5-fluoropyridin-3-yl]-2-fluorobenzyl carbamimidoylcarbamate], the inhibition in vivo at 0.3 mg/kg in data set [1] was not below 50%. Further, the inhibition at 0.03 µM in data set [2] was not below 50%.

`N=C(N)NC(=O)OCc1cccc(-c2cnc(N3CC(F)C3)c(F)c2)c1F` [Example 10, 2-Fluoro-3-[5-fluoro-6-(3-fluoroazetidin-1-yl)pyridin-3-yl]benzyl carbamimidoylcarbamate]: the inhibition in vivo at 0.3 mg/kg in data set [1] is not below 50%. Moreover, the inhibition at 0.03 µM in data set [2] is not below 50%.

On to `N=C(N)NC(=O)OCc1cccc(-c2cnc(N3CC4(COC4)C3)c(F)c2)c1F` [Example 16, 2-Fluoro-3-[5-fluoro-6-(2-oxa-6-azaspiro[3.3]heptan-6-yl)pyridin-3-yl]benzyl carbamimidoylcarbamate], for which, in data set [1], the inhibition in vivo at 0.3 mg/kg is not below 50%. Besides, in data set [3], the “amount of metabolites found in the blood” value is listed as “small”. Besides, the inhibition at 0.03 µM in data set [2] was not below 50%.

In the case of `CC(C)OC1CN(c2ncc(-c3cccc(COC(=O)NC(=N)N)c3F)cc2F)C1` [Example 6, 2-Fluoro-3-[5-fluoro-6-(3-isopropoxyazetidin-1-yl)pyridin-3-yl]benzyl carbamimidoylcarbamate], the inhibition in vivo at 0.3 mg/kg in data set [1] is not below 50%. Moreover, the inhibition at 0.03 µM in data set [2] was not below 50%.

Take `N=C(N)NC(=O)OCc1cccc(-c2cnc(N3CC(F)(F)C3)c(F)c2)c1F` [Example 11, 3-[6-(3,3-Difluoroazetidin-1-yl)-5-fluoropyridin-3-yl]-2-fluorobenzyl carbamimidoylcarbamate]: the inhibition in vivo at 0.3 mg/kg in data set [1] is not below 50%. In addition, the inhibition at 0.03 µM in data set [2] was not below 50%.

Regarding `COC1CN(c2ncc(-c3cccc(COC(=O)NC(=N)N)c3F)cc2F)C1` [Example 1, 2-Fluoro-3-[5-fluoro-6-(3-methoxyazetidin-1-yl)pyridin-3-yl]benzyl carbamimidoylcarbamate], the inhibition in vivo at 0.3 mg/kg in data set [1] is not below 50%. Also, the inhibition at 0.03 µM in data set [2] is not below 50%.

`N=C(N)NC(=O)OCc1cccc(-c2cnc(N3CC(OCCF)C3)c(F)c2)c1F` [Example 4, 2-Fluoro-3-{5-fluoro-6-[3-(2-fluoroethoxy)azetidin-1-yl]pyridin-3-yl}benzyl carbamimidoylcarbamate]: the inhibition in vivo at 0.3 mg/kg in data set [1] is not below 50%. The inhibition at 0.03 µM in data set [2] was not below 50%.

As for `CC1CN(c2ncc(-c3cccc(COC(=O)NC(=N)N)c3F)cc2F)C1` [Example 12, 2-Fluoro-3-[5-fluoro-6-(3-methylazetidin-1-yl)pyridin-3-yl]benzyl carbamimidoylcarbamate], the inhibition in vivo at 0.3 mg/kg in data set [1] is not below 50%. In data set [2], the inhibition at 0.03 µM was not below 50%.

In the case of `N=C(N)NC(=O)OCc1cccc(-c2cnc(N3CC(O)C3)c(F)c2)c1F` [Example 8, 2-Fluoro-3-[5-fluoro-6-(3-hydroxyazetidin-1-yl)pyridin-3-yl]benzyl carbamimidoylcarbamate], the inhibition in vivo at 0.3 mg/kg in data set [1] is not below 50%. The “amount of metabolites found in the blood” value in data set [3] is given as “small”. Besides, the inhibition at 0.03 µM in data set [2] is not below 50%.

`N=C(N)NC(=O)OCc1cccc(-c2cnc(N3CCC3)c(F)c2)c1F` [Example 9, 3-[6-(Azetidin-1-yl)-5-fluoropyridin-3-yl]-2-fluorobenzyl carbamimidoylcarbamate]: the inhibition in vivo at 0.3 mg/kg in data set [1] was not below 50%. Moreover, in data set [2], the inhibition at 0.03 µM was not below 50%.
